# Experimental data taken from PubChem BioAssay (NCI).
#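 96-well plates; 48 h exposure; 5 concentrations. Endpoints by linear interpolation between flanking doses. Not reached: highest tested concentration assigned. At the TGI there is no net growth.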
# Legend:
# Assay in all cases: inhibition of tumour cell growth, NCI panel, 48 h
# IGROV1 ovarian = test system: IGROV1 ovarian
# MALME-3M melanoma = test system: MALME-3M melanoma
# M14 melanoma = test system: M14 melanoma
# NCI-H460 lung = test system: NCI-H460 lung
# MDA-MB-435 = test system: MDA-MB-435
# 786-0 renal = test system: 786-0 renal
# SNB-19 CNS = test system: SNB-19 CNS
# COLO 205 colon = test system: COLO 205 colon
# MDA-MB-231 breast = test system: MDA-MB-231 breast
# UACC-257 melanoma = test system: UACC-257 melanoma
# NCI/ADR-RES ovarian = test system: NCI/ADR-RES ovarian
# UO-31 renal = test system: UO-31 renal
# SK-OV-3 ovarian = test system: SK-OV-3 ovarian
# HOP-62 NSCLC = test system: HOP-62 NSCLC
# CCRF-CEM leukemia = test system: CCRF-CEM leukemia
# KM12 colon = test system: KM12 colon
# SNB-75 CNS = test system: SNB-75 CNS
# HCC-2998 colon = test system: HCC-2998 colon
# SF-295 CNS = test system: SF-295 CNS
# DU-145 prostate = test system: DU-145 prostate
# OVCAR-8 ovarian = test system: OVCAR-8 ovarian
# U251 CNS = test system: U251 CNS
# HT29 colon = test system: HT29 colon
# RXF 393 renal = test system: RXF 393 renal
# T-47D breast = test system: T-47D breast
# SW-620 colon = test system: SW-620 colon
# MDA-N = test system: MDA-N
# CAKI-1 renal = test system: CAKI-1 renal
# HS 578T breast = test system: HS 578T breast
# OVCAR-3 ovarian = test system: OVCAR-3 ovarian
# HCT-116 colon = test system: HCT-116 colon
# RPMI-8226 leukemia = test system: RPMI-8226 leukemia
# BT-549 breast = test system: BT-549 breast
# A549 NSCLC = test system: A549 NSCLC
# HL-60(TB) leukemia = test system: HL-60(TB) leukemia
# MCF7 breast = test system: MCF7 breast
# ACHN renal = test system: ACHN renal
# SF-539 CNS = test system: SF-539 CNS
# SK-MEL-5 melanoma = test system: SK-MEL-5 melanoma
# NCI-H226 lung = test system: NCI-H226 lung
# SN12C renal = test system: SN12C renal
# UACC-62 melanoma = test system: UACC-62 melanoma
# SK-MEL-28 melanoma = test system: SK-MEL-28 melanoma
# OVCAR-4 ovarian = test system: OVCAR-4 ovarian
# NCI-H23 lung = test system: NCI-H23 lung
# HCT-15 colon = test system: HCT-15 colon
# PC-3 prostate = test system: PC-3 prostate
# EKVX NSCLC = test system: EKVX NSCLC
# HOP-92 NSCLC = test system: HOP-92 NSCLC
# SF-268 CNS = test system: SF-268 CNS
# LOX IMVI melanoma = test system: LOX IMVI melanoma
# K-562 leukemia = test system: K-562 leukemia
# TK-10 renal = test system: TK-10 renal
# SK-MEL-2 melanoma = test system: SK-MEL-2 melanoma
# NCI-H522 lung = test system: NCI-H522 lung
# MOLT-4 leukemia = test system: MOLT-4 leukemia
structure (smiles),measurement,setting,value
CC(C)C1/C(=N/O)CC(c2ccccc2)N(N=O)C1c1ccccc1 (stereo unspecified),TGI,IGROV1 ovarian,> 100 µM
same,TGI,MALME-3M melanoma,61.9 µM
same,TGI,M14 melanoma,> 100 µM
same,TGI,NCI-H460 lung,67.5 µM
same,TGI,MDA-MB-435,72.4 µM
same,TGI,786-0 renal,> 100 µM
same,TGI,SNB-19 CNS,> 100 µM
same,TGI,COLO 205 colon,31 µM
same,TGI,MDA-MB-231 breast,> 100 µM
same,TGI,UACC-257 melanoma,> 100 µM
same,TGI,NCI/ADR-RES ovarian,> 100 µM
same,TGI,UO-31 renal,82.9 µM
same,TGI,SK-OV-3 ovarian,> 100 µM
same,TGI,HOP-62 NSCLC,> 100 µM
same,TGI,CCRF-CEM leukemia,> 100 µM
same,TGI,KM12 colon,> 100 µM
same,TGI,SNB-75 CNS,> 100 µM
same,TGI,HCC-2998 colon,> 100 µM
same,TGI,SF-295 CNS,> 100 µM
same,TGI,DU-145 prostate,> 100 µM
same,TGI,OVCAR-8 ovarian,> 100 µM
same,TGI,U251 CNS,> 100 µM
same,TGI,HT29 colon,39 µM
same,TGI,RXF 393 renal,> 100 µM
same,TGI,T-47D breast,96.2 µM
same,TGI,SW-620 colon,> 100 µM
same,TGI,MDA-N,> 100 µM
same,TGI,CAKI-1 renal,89.7 µM
same,TGI,HS 578T breast,> 100 µM
same,TGI,OVCAR-3 ovarian,> 100 µM
same,TGI,HCT-116 colon,85.7 µM
same,TGI,RPMI-8226 leukemia,> 100 µM
same,TGI,BT-549 breast,> 100 µM
same,TGI,A549 NSCLC,> 100 µM
same,TGI,HL-60(TB) leukemia,86.7 µM
same,TGI,MCF7 breast,> 100 µM
same,TGI,ACHN renal,> 100 µM
same,TGI,SF-539 CNS,> 100 µM
same,TGI,SK-MEL-5 melanoma,95.9 µM
same,TGI,NCI-H226 lung,> 100 µM
same,TGI,SN12C renal,> 100 µM
same,TGI,UACC-62 melanoma,45.3 µM
same,TGI,SK-MEL-28 melanoma,> 100 µM
same,TGI,OVCAR-4 ovarian,> 100 µM
same,TGI,NCI-H23 lung,> 100 µM
same,TGI,HCT-15 colon,> 100 µM
same,TGI,PC-3 prostate,> 100 µM
same,TGI,EKVX NSCLC,73.5 µM
same,TGI,HOP-92 NSCLC,78.6 µM
same,TGI,SF-268 CNS,> 100 µM
same,TGI,LOX IMVI melanoma,> 100 µM
same,TGI,K-562 leukemia,> 100 µM
same,TGI,TK-10 renal,> 100 µM
same,TGI,SK-MEL-2 melanoma,73.6 µM
same,TGI,NCI-H522 lung,> 100 µM
same,TGI,MOLT-4 leukemia,95.6 µM
